Structures can show the parent of a compound that is named as a salt.
What was measured:
SB.mhdgc-1 [1] = experiment: viability at highest tested concentration (MAXR) relative to DMSO; higher = less cytotoxic; conditions: SB.mhdgc-1 (hereditary c.1380delA CDH1 gastric cancer)
In short: (§1)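 Gastric cancer cells derived from hereditary or sporadic patients were treated for 48 h with compound at 11 threefold dilutions, with the top concentration recorded per compound. Viability was then read by CellTiter-Glo luminescence. Data are viability normalised to DMSO, at the highest concentration or as trapezoidal area under the curve.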

SB.msgc-1 [2] = experiment: as above; conditions: SB.msgc-1 (sporadic gastric cancer)
In short: as §1

SB.mhdgc-1 [3] = experiment: area under the dose-response curve of % viability (trapezoidal, 11 doses) (% viability x log10 concentration); higher = less cytotoxic; conditions: SB.mhdgc-1 (hereditary c.1380delA CDH1 gastric cancer)
In short: as §1

SB.msgc-1 [4] = experiment: as above; conditions: SB.msgc-1 (sporadic gastric cancer)
In short: as §1

SMILES | viability (SB.mhdgc-1 [1]) [%] | viability (SB.msgc-1 [2]) [%] | area under the dose-response curve (SB.mhdgc-1 [3]) | area under the dose-response curve (SB.msgc-1 [4])
N=C(N)c1ccc(OCCCCCOc2ccc(C(=N)N)cc2)cc1 [Pentamidine isethionate] (top concentration 46.0829 µM) | 53.8 | 10.8 | 464 | 509
O=C(NOC[C@H](O)CO)c1ccc(F)c(F)c1Nc1ccc(I)cc1F (top concentration 46.0829 µM) | 47.5 | 64.2 | 364 | 444
CC1(C)S[C@H]2[C@H](NC(=O)[C@@H](N)C3=CC=C(O)C=C3)C(=O)[N@]2[C@H]1C(O)=O [Amoxicillin sodium] (top concentration 46.0829 µM) | 48.1 | 12.3 | 460 | 491
O=C(C=CC#Cc1cccc(N[S+](=O)([O-])c2ccccc2)c1)NO [Oxamflatin] (top concentration 46.0829 µM) | 19.8 | 9.38 | 403 | 379
COCC1(CO)C(=O)C2CCN1CC2 (configuration not stated) [APR-246] (top concentration 46.0829 µM) | 2.52 | 85.1 | 407 | 548
Nc1ncnc2c1ncn2[C@@H]1O[C@H](CO)C[C@H]1O [Cordycepin] (top concentration 46.0829 µM) | 108 | 55.5 | 501 | 390
CC(C)[C@]12O[C@H]1[C@@H]3O[C@@]34[C@@]5(C)CC\C6=C(COC6=O)/[C@@H]5C[C@@H]7O[C@]47[C@@H]2O [Triptolide] (top concentration 46.0829 µM) | 61.6 | 48 | 302 | 235
O=C(C1CC1)N1CC[C@@H](Cn2c(-c3ccc(-c4ccc5occc5c4)cc3)nc3cnccc32)C1 (top concentration 46.0829 µM) | 63.9 | 54.8 | 536 | 508
Fc1cc(-c2cccc3ncc(-c4cnn(C5CCNCC5)c4)nc23)cc(F)c1CN1CCOCC1 [NVP-BSK805] (top concentration 46.0829 µM) | 3.9 | 38.6 | 502 | 500
CC(N)C12CC3CC(CC(C3)C1)C2 (configuration not stated) [Rimantadine] (top concentration 46.0829 µM) | 136 | 112 | 569 | 559
CN1CCN(CC1)C2=CC3=C([NH]C(=N3)C/4=C(\N)C5=C(F)C=CC=C5NC4=O)C=C2 [Dovitinib] (top concentration 46.0829 µM) | 17 | 48.2 | 543 | 481
COc1cc2nc(N3CCN(C(=O)C4CCCO4)CC3)nc(N)c2cc1OC (configuration not stated) [Terazosin hydrochloride] (top concentration 46.0829 µM) | 98.7 | 104 | 496 | 539
CC1Cc2ccccc2N1NC(=O)c1ccc(Cl)c([S+](N)(=O)[O-])c1 (configuration not stated) [Indapamide] (top concentration 46.0829 µM) | 112 | 96.4 | 597 | 542
Cc1coc2c1C(=O)C(=O)c1c-2ccc2c(C)cccc12 [Tanshinone I] (top concentration 46.0829 µM) | 34.1 | 115 | 501 | 541
CC[S+](=O)([O-])N1CC(CC#N)(n2cc(-c3ncnc4[nH]ccc34)cn2)C1 [Baricitinib] (top concentration 46.0829 µM) | 41.1 | 70.6 | 470 | 523
CNNCc1ccc(C(=O)NC(C)C)cc1 [Procarbazine hydrochloride] (top concentration 46.0829 µM) | 99.5 | 61.7 | 517 | 515
N=c1c2c(-c3ccccc3)c(-c3ccccc3)n(Cc3ccccc3)c2ncn1[C@H]1CC[C@H](O)CC1 (top concentration 46.0829 µM) | 0.949 | 17.3 | 431 | 434
Cc1c(C)n(Cc2ccc(-c3ccccc3C(=O)O)cc2)c2ccc(C(=O)N[C@@H](C)c3ccc([N+](=O)[O-])cc3)cc12 [SR1664] (top concentration 46.0829 µM) | 35.3 | 32.4 | 315 | 422
CCC(C1CCC(C)C(O1)C(C)C(O)C(C)C(=O)C(CC)C2OC\3(O[C@]4(CC[C@@](C)(O4)C5CC[C@@](O)(CC)C(C)O5)C(O)\C=C3)C(C)CC2C)C([O-])=O (some centres not stated) [Salinomycin] (top concentration 46.0829 µM) | 8.12 | 23.7 | 432 | 334
C[C@@H]1O[C@@H](O[C@H]2C[C@@H](O)[C@]3(CO)[C@H]4[C@H](O)C[C@]5(C)[C@@H](C6=CC(=O)OC6)CC[C@]5(O)[C@@H]4CC[C@]3(O)C2)[C@H](O)[C@H](O)[C@H]1O [G-Strophanthin] (top concentration 46.0829 µM) | 22.5 | 34.8 | 310 | 279
Cc1nc(NC(=O)N2CCC[C@H]2C(N)=O)sc1-c1ccnc(C(C)(C)C(F)(F)F)c1 [BYL-719] (top concentration 46.0829 µM) | 24.8 | 52.4 | 337 | 436
CCN(CCO)CCCC(C)Nc1ccnc2cc(Cl)ccc12 (configuration not stated) [Hydroxychloroquine sulfate] (top concentration 46.0829 µM) | 63.4 | 102 | 476 | 516
C[C@@]12C[C@@]3(O)O[C@@H](O1)[C@]1(COC(=O)c4ccccc4)[C@H]3C[C@@]12O[C@@H]1O[C@H](CO)[C@@H](O)[C@H](O)[C@H]1O [Paeoniflorin] (top concentration 46.0829 µM) | 108 | 114 | 500 | 500
